How the values were obtained:
[1] = molecular target: T1, Macrophage scavenger receptor types I and II (Mus musculus) (UniProt P30204); assay: Percent inhibition of DiI-acetyl-LDL binding to scavenger receptor of mouse peritoneal macrophages at 100 uM; type: functional
T1 sequence (whole entry): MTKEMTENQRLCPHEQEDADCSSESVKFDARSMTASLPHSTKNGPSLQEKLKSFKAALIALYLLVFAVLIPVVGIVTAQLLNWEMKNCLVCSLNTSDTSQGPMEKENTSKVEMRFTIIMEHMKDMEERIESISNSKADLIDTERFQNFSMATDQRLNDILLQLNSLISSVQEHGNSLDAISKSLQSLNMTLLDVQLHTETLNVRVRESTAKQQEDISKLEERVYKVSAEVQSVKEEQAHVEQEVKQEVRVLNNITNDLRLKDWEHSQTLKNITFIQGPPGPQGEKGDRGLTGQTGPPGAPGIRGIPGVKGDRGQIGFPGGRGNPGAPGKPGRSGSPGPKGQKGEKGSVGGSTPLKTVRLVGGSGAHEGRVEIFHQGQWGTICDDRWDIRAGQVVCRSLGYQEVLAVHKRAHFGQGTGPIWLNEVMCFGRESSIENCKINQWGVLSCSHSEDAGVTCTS

[2] = molecular target: T2, Macrophage scavenger receptor types I and II (Mus musculus, UniProt P30204); assay: Inhibitory activity against [125I]acetyl-LDL binding to mouse peritoneal macrophage scavenger receptor
T2 sequence (P30204 whole entry): T1 sequence (whole entry)

[3] = molecular target: T1, Macrophage scavenger receptor types I and II (Mus musculus); assay: Activity against acetyl-LDLbinding to scavenger receptor as percent inhibition of incorporation of DiI-acetyl-LDL into mouse peritoneal macrophages at 10 uM
[4] = molecular target: T1, Macrophage scavenger receptor types I and II (Mus musculus); assay: Activity against acetyl-LDLbinding to scavenger receptor as percent inhibition of incorporation of DiI-acetyl-LDL into mouse peritoneal macrophages at 30 uM
[5] = molecular target: T1, Macrophage scavenger receptor types I and II (Mus musculus); assay: Inhibitory activity against [125I]acetyl-LDL binding to mouse peritoneal macrophage scavenger receptor at 10 uM
[6] = molecular target: T1, Macrophage scavenger receptor types I and II (Mus musculus); assay: Inhibitory activity against [125I]-acetyl-LDL binding to mouse peritoneal macrophage scavenger receptor at 100 uM
[7] = molecular target: T1, Macrophage scavenger receptor types I and II (Mus musculus); assay: Inhibitory activity against [125I]acetyl-LDL binding to mouse peritoneal macrophage scavenger receptor at 30 uM

Compound | inhibition [1] [%] | inhibition [4] [%] | further results
CCCCCCCCCCCCCCCCCC(=O)NC(COS(=O)(=O)O)C(=O)NCCCCCCCCCCCCCC (stereo not drawn) | 61.4 | 43.8 | inhibition [5]: 6.6%; inhibition [6]: 81.1%; inhibition [7]: 41.8%; inhibition [3]: 20.5%
CCCCCCCCCCCCCCCCCCCCCC(=O)Nc1ccc(S(=O)(=O)O)c(NC(=O)CCCCCCCCCCCCCCCCCCCCC)c1 | 85.7 | 48 | 
CCCCCCCCCCCCCCCCCC(=O)N1C[C@H](OS(=O)(=O)O)C[C@H]1C(=O)NCCCCCCCCCCCCCC | 23.7 |  | 
CCCCCCCCCCCCCCCCCC(=O)Nc1ccc(COS(=O)(=O)O)cc1NC(=O)CCCCCCCCCCCCCCCC | < 10 |  | 
CCCCCCCCCCCCCCCCCC(=O)Nc1cc(NC(=O)CCCCCCCCCCCCCCCCC)cc(S(=O)(=O)O)c1 | 71.2 | 46.2 | inhibition [3]: 18.5%
CCCCCCCCCCCCCCCCCC(=O)Nc1ccc(C(=O)O)c(NC(=O)CCCCCCCCCCCCCCCCC)c1 | < 10 |  | 

Continued, in another order:

inhibition [1] [%] | inhibition [4] [%] | Compound | further results
< 10 |  | CCCCCCCCCC(=O)Nc1ccc(S(=O)(=O)O)c(NC(=O)CCCCCCCCC)c1 | 
84.6 | 72.5 | CCCCCCCCCCCCCCCCCC(=O)Nc1ccc(S(=O)(=O)O)c(NC(=O)CCCCCCCCCCCCCCCCC)c1 | IC50 [2]: 2000 nM; inhibition [3]: 57%
< 10 |  | CCCCCCCCCCCCCCCCCC(=O)Nc1ccc(S(=O)(=O)O)cc1 | 
66.6 | 48 | CCCCCCCCCCCCCC(=O)Nc1ccc(S(=O)(=O)O)c(NC(=O)CCCCCCCCCCCCC)c1 | 
32.1 |  | CCCCCCCCCCCCCCCCCC(=O)Nc1ccc(NC(=O)CCCCCCCCCCCCCCCCC)c(S(=O)(=O)O)c1 | 

Source: ChEMBL document CHEMBL1148259, “2,4-Bis(octadecanoylamino)benzenesulfonic acid sodium salt as a novel scavenger receptor inhibitor with low molecular weight” (Bioorg Med Chem Lett, 2004)
